Patent US6172185A, “Antimicrobial cationic peptide derivatives of bactenecin” (priority 1998, dated 2001)
Where a SMILES comes first, the peptide text is derived from it. Where no end group is shown, it is not given here.

Key:
E. coli DC2 = format: cell-based, Escherichia coli; details: E. coli DC2, 0.1M KCl
Procedure: The minimal inhibitory concentration (MIC) of peptides was determined by a modified two-fold microtitre broth dilution method modified from that of Steinberg et al (Steinberg, Antimicrob. Agents Chemother. 41:1738, 1997). Using the classical method (Amsterdam, Antibiotics in Laboratory Medicine (Lorian, V., ed) pp. 72-78, 1991), higher concentrations of peptides tend to precipitate in the LB broth, thus the concentrations of peptides in the sequential wells are not accurate. Also the peptides stick to the most readily available (tissue-culture treated polystyrene) 96-well microtitre plates. Therefore the 2× series of dilutions was performed in Eppendoff tubes (polypropylene) before mixing with LB broth. Serial of two fold dilutions of peptides ranging from 640 μg/ml to 1.25 μg/ml were made in 0.2% BSA, 0.01% acetic acid buffer in the Eppendoff tubes. Ten μl of each concentration was added to each corresponding well of a 96-well microtiter plate (polypropylene cluster; Costar Corporation, Cambridge, Mass.). Bacteria were grown overnight and diluted 10-5 into fresh LB broth or Todd Hewitt broth for Streptococcus. LB medium contained 10 g/1l tryptone and 5 g/yeast extract, with no salt. Todd Hewitt contained 500 g/l beef heart infusion, 20 g/l bacto neopeptone, 2 g/l bacto dextrose, 2 g/l sodium chloride, 0.4 g/l disodium phosphate, 2.5 g/l sodium carbonate. One hundred […] containing about 10^4-10^5 CFU/ml of tested bacteria was added to each well. […]
It has been proposed that the antibacterial target of cationic peptides be at the cytoplasmic membrane. […] Once inside the cells, diS-C3-(5) becomes concentrated and self-quenches its own fluorescence. If peptides form channels or otherwise disrupt the membrane, the membrane potential will be dissipated, and the DiS-C3-(5) will be released into the medium causing the fluorescence to increase, as can be detected by fluorescent spectrometry. […] Therefore the MICs of bactenecin, reduced bactenecin and bac2S in the presence of 0.1M KCl were determined and shown to be 8-16 μg/ml (i.e. 4 to 8 fold higher than in low salt). […]

Listeria monocytogenes = experiment: MIC, modified two-fold microtitre broth dilution; format: cell-based
Excerpt: (§1) Bacterial strains for antimicrobial activity testing included Escherichia coli UB1005 and its antibiotic supersusceptible derivative DC2 (Richmond et al., Antimicrob. Agents Chemother. 10:215, 1976), Pseudomonas aeruginosa K799 and its antibiotic-supersusceptible derivative Z61 (Angus et al., Antimicrob. Agents Chemother. 21:299, 1982), Salmonella typhimurium 14028s and its defensin-supersusceptible derivative MS7953s (Fields et al., Science, 243:1059, 1989), Staphylococcus aureus ATCC25923 and a clinical isolate Staphylococcus aureus SAP1007. Other Gram-positive bacterial strains include Staphylococcus epidermidis (clinical isolate) and Enterococcus faecalis ATCC29212, Listeria monocytogenes, Corynebacterium xerosis, Streptococcus pneumoniae ATTC49619, Streptococcus pyogenes ATTC19615, Streptococcus mitis.
(§2) The minimal inhibitory concentration (MIC) of peptides was determined by a modified two-fold microtitre broth dilution method modified from that of Steinberg et al (Steinberg, Antimicrob. Agents Chemother. 41:1738, 1997). Using the classical method (Amsterdam, Antibiotics in Laboratory Medicine (Lorian, V., ed) pp. 72-78, 1991), higher concentrations of peptides tend to precipitate in the LB broth, thus the concentrations of peptides in the sequential wells are not accurate. Also the peptides stick to the most readily available (tissue-culture treated polystyrene) 96-well microtitre plates. Therefore the 2× series of dilutions was performed in Eppendoff tubes (polypropylene) before mixing with LB broth. Serial of two fold dilutions of peptides ranging from 640 μg/ml to 1.25 μg/ml were made in 0.2% BSA, 0.01% acetic acid buffer in the Eppendoff tubes. Ten μl of each concentration was added to each corresponding well of a 96-well microtiter plate (polypropylene cluster; Costar Corporation, Cambridge, Mass.). Bacteria were grown overnight and diluted 10-5 into fresh LB broth or Todd Hewitt broth for Streptococcus. LB medium contained 10 g/1l tryptone and 5 g/yeast extract, with no salt. Todd Hewitt contained 500 g/l beef heart infusion, 20 g/l bacto neopeptone, 2 g/l bacto dextrose, 2 g/l sodium chloride, 0.4 g/l disodium phosphate, 2.5 g/l sodium carbonate. One hundred […] containing about 10^4-10^5 CFU/ml of tested bacteria was added to each well. The plate was incubated at 37° C. overnight. The MIC was taken as the concentration at which greater than 90% of growth inhibition was observed.

Strep. pyogenes = experiment: MIC, modified two-fold microtitre broth dilution; format: cell-based, Streptococcus pyogenes; details: for MIC Strep. pyogeness: Table IID, linear (Group 2): reduced forms of the peptides, Bac (Oxidized) as comparator
Excerpt: as §1, §2

E.facaelis = experiment: MIC, modified two-fold microtitre broth dilution; format: cell-based, Enterococcus faecalis
Excerpt: as §1, §2

P.aeruginosa = experiment: MIC, modified two-fold microtitre broth dilution; format: cell-based, Pseudomonas aeruginosa
Excerpt: as §1, §2

C. xerosis = experiment: MIC, modified two-fold microtitre broth dilution; format: cell-based, Corynebacterium xerosis
Excerpt: as §1, §2

Staph. aureus = experiment: MIC, modified two-fold microtitre broth dilution; format: cell-based, Staphylococcus aureus
Excerpt: as §1, §2

Strep. pneumoniae = experiment: MIC, modified two-fold microtitre broth dilution; format: cell-based, Streptococcus pneumoniae; details: for MIC Strep. pneumonia: Table IID, linear (Group 2): reduced forms of the peptides, Bac (Oxidized) as comparator; for MIC S. pneumonia: Table IIIB, non-linear positive-charge modification derivatives
Excerpt: as §1, §2

Staph. epidermidis = experiment: MIC, modified two-fold microtitre broth dilution; format: cell-based, Staphylococcus epidermidis
Excerpt: as §1, §2

Strep. mitis = experiment: MIC, modified two-fold microtitre broth dilution; format: cell-based, Streptococcus mitis; details: for MIC Strep. mitis: Table IID, linear (Group 2): reduced forms of the peptides, Bac (Oxidized) as comparator
Excerpt: as §1, §2

E.coli UB1005 = experiment: MIC, modified two-fold microtitre broth dilution; format: cell-based, Escherichia coli
Excerpt: as §1, §2

S.typhimurium = experiment: MIC, modified two-fold microtitre broth dilution; format: cell-based, Salmonella typhimurium
Excerpt: as §1, §2

[1] = Table IID, linear (Group 2): reduced forms of the peptides, Bac (Oxidized) as comparator
[2] = Table IIIB, non-linear positive-charge modification derivatives
[3] = Table IIC, linear (Group 2): reduced forms of the peptides, Bac (Oxidized) as comparator
[4] = table IIA, non-linear positive-charge modification derivatives
[5] = Table IVB, non-linear hydrophobicity modification derivatives
[6] = Table IVA, non-linear hydrophobicity modification derivatives

CC[C@H](C)[C@H](NC(=O)[C@H](CCCNC(=N)N)NC(=O)[C@H](CS)NC(=O)[C@H](CC(C)C)NC(=O)[C@@H](N)CCCNC(=N)N)C(=O)N[C@H](C(=O)N[C@H](C(=O)N[C@H](C(=O)N[C@@H](CCCNC(=N)N)C(=O)N[C@H](C(=O)N[C@@H](CS)C(=O)N[C@@H](CCCNC(=N)N)C(=O)O)C(C)C)[C@@H](C)CC)C(C)C)C(C)C [Bac (Reduced), RLCRIVVIRVCR] (H-RLCRIVVIRVCR-OH)
Minimal Agglutinating Concentration, Oxidized Form (Human Red Blood Cells): 16 µg/mL | concentration causing agglutination of human red blood cells (Human Red Blood Cells): 16 to 32 µg/mL | MIC in the presence of 0.1M KCl (E. coli DC2): 8 to 16 µg/mL

RLSRIVVIRVSR [Bac 2S, RLSRIVVIRVSR]
Minimal Agglutinating Concentration, Oxidized Form (Human Red Blood Cells): > 64 µg/mL | MIC in the presence of 0.1M KCl (E. coli DC2): 8 to 16 µg/mL

RRLCRIVVIRVCRR [Bac 2R, tested oxidized and reduced]
MIC Listeria (Listeria monocytogenes; [1]): 0.5 µg/mL | MIC Listeria (Listeria monocytogenes; [2]): < 0.125 µg/mL | MIC Strep. pyogeness (Strep. pyogenes): 16 µg/mL | MIC Strep. pyogenes (Strep. pyogenes; [2]): 8 µg/mL | MIC E.facaelis (E.facaelis; [1]): 4 µg/mL | MIC E.facaelis (E.facaelis; [2]): 32 µg/mL | MIC against P. aeruginosa, times better than native bactenecin (P.aeruginosa): 2 X | MIC P. aeruginosa (P.aeruginosa; [3]): 16 µg/mL | MIC P. aeruginosa (P.aeruginosa; [4]): 4 µg/mL | MIC C. xerosis (C. xerosis; [1]): 0.25 µg/mL | MIC C. xerosis (C. xerosis; [2]): 1 µg/mL | Minimal Agglutinating Concentration, Oxidized Form (Human Red Blood Cells): 64 µg/mL | Minimal Agglutinating Concentration, Reduced Form (Human Red Blood Cells): 32 µg/mL | MIC Staph. aureus (Staph. aureus; [1]): > 64 µg/mL | MIC Staph. aureus (Staph. aureus; [2]): 64 µg/mL | MIC Strep. pneumonia (Strep. pneumoniae): > 64 µg/mL | MIC S. pneumonia (Strep. pneumoniae): > 64 µg/mL | MIC Staph. epidermidis (Staph. epidermidis; [1]): 4 µg/mL | MIC Staph. epidermidis (Staph. epidermidis; [2]): 8 µg/mL | MIC Strep. mitis (Strep. mitis): 0.5 µg/mL | MIC S. mitis (Strep. mitis; [2]): 0.5 µg/mL | MIC E.coli UB1005 (E.coli UB1005; [3]): 4 µg/mL | MIC E.coli UB1005 (E.coli UB1005; [4]): 2 µg/mL | MIC against S. typhimurium, times better than native bactenecin (S.typhimurium): 2 X | MIC S. typhimurium (S.typhimurium; [3]): 32 µg/mL | MIC S. typhimurium (S.typhimurium; [4]): 4 µg/mL

RRLCRIVWVIRVCRR [Bac 2R, W, tested oxidized and reduced]
MIC Listeria (Listeria monocytogenes; [1]): 4 µg/mL | MIC Listeria (Listeria monocytogenes; [5]): 0.25 µg/mL | MIC Strep. pyogeness (Strep. pyogenes): 32 µg/mL | MIC Strep. pyogenes (Strep. pyogenes; [5]): 1 µg/mL | MIC E.facaelis (E.facaelis; [1]): > 64 µg/mL | MIC E.facaelis (E.facaelis; [5]): 2 µg/mL | MIC P. aeruginosa (P.aeruginosa; [3]): > 64 µg/mL | MIC P. aeruginosa (P.aeruginosa; [6]): 2 µg/mL | MIC C. xerosis (C. xerosis; [1]): 2 µg/mL | MIC C. xerosis (C. xerosis; [5]): 0.25 µg/mL | Minimal Agglutinating Concentration, Oxidized Form (Human Red Blood Cells): 32 µg/mL | Minimal Agglutinating Concentration, Reduced Form (Human Red Blood Cells): 8 µg/mL | concentration causing agglutination of human red blood cells (Human Red Blood Cells): 16 to 32 µg/mL | MIC Staph. aureus (Staph. aureus; [1]): > 64 µg/mL | MIC Staph. aureus (Staph. aureus; [5]): 2 µg/mL | MIC Strep. pneumonia (Strep. pneumoniae): 64 µg/mL | MIC S. pneumoniae (Strep. pneumoniae; [5]): 8 µg/mL | MIC Staph. epidermidis (Staph. epidermidis; [1]): 32 µg/mL | MIC Staph. epidermidis (Staph. epidermidis; [5]): 1 µg/mL | MIC Strep. mitis (Strep. mitis): 2 µg/mL | MIC S. mitis (Strep. mitis; [5]): 0.25 µg/mL | MIC E.coli UB1005 (E.coli UB1005; [3]): > 64 µg/mL | MIC E.coli UB1005 (E.coli UB1005; [6]): 2 µg/mL | MIC S. typhimurium (S.typhimurium; [3]): > 64 µg/mL | MIC S. typhimurium (S.typhimurium; [6]): 2 µg/mL

RRRCPIVVIRVCRR [Bac 3R, P, tested oxidized and reduced]
MIC Listeria (Listeria monocytogenes; [1]): 2 µg/mL | MIC Listeria (Listeria monocytogenes; [2]): 0.5 µg/mL | MIC Strep. pyogeness (Strep. pyogenes): 16 µg/mL | MIC Strep. pyogenes (Strep. pyogenes; [2]): 8 µg/mL | MIC E.facaelis (E.facaelis; [1]): 64 µg/mL | MIC E.facaelis (E.facaelis; [2]): 32 µg/mL | MIC P. aeruginosa (P.aeruginosa; [3]): > 64 µg/mL | MIC P. aeruginosa (P.aeruginosa; [4]): 8 µg/mL | MIC C. xerosis (C. xerosis; [1]): 0.5 µg/mL | MIC C. xerosis (C. xerosis; [2]): 4 µg/mL | Minimal Agglutinating Concentration, Oxidized Form (Human Red Blood Cells): 64 µg/mL | Minimal Agglutinating Concentration, Reduced Form (Human Red Blood Cells): 16 µg/mL | MIC Staph. aureus (Staph. aureus; [1]): > 64 µg/mL | MIC Staph. aureus (Staph. aureus; [2]): > 64 µg/mL | MIC Strep. pneumonia (Strep. pneumoniae): > 64 µg/mL | MIC S. pneumonia (Strep. pneumoniae): > 64 µg/mL | MIC Staph. epidermidis (Staph. epidermidis; [1]): 16 µg/mL | MIC Staph. epidermidis (Staph. epidermidis; [2]): 16 µg/mL | MIC Strep. mitis (Strep. mitis): 0.5 µg/mL | MIC S. mitis (Strep. mitis; [2]): 1 µg/mL | MIC E.coli UB1005 (E.coli UB1005; [3]): 8 µg/mL | MIC E.coli UB1005 (E.coli UB1005; [4]): 2 µg/mL | MIC S. typhimurium (S.typhimurium; [3]): > 64 µg/mL | MIC S. typhimurium (S.typhimurium; [4]): 8 µg/mL

RRRLCPIVIRVCRR [Bac 3R, P, (V), tested oxidized and reduced]
MIC Listeria (Listeria monocytogenes; [1]): 1 µg/mL | MIC Listeria (Listeria monocytogenes; [2]): 1 µg/mL | MIC Strep. pyogeness (Strep. pyogenes): 8 µg/mL | MIC Strep. pyogenes (Strep. pyogenes; [2]): 4 µg/mL | MIC E.facaelis (E.facaelis; [1]): 32 µg/mL | MIC E.facaelis (E.facaelis; [2]): > 64 µg/mL | MIC P. aeruginosa (P.aeruginosa; [3]): 32 µg/mL | MIC P. aeruginosa (P.aeruginosa; [4]): 8 µg/mL | MIC C. xerosis (C. xerosis; [1]): 0.5 µg/mL | MIC C. xerosis (C. xerosis; [2]): 4 µg/mL | Minimal Agglutinating Concentration, Oxidized Form (Human Red Blood Cells): > 64 µg/mL | Minimal Agglutinating Concentration, Reduced Form (Human Red Blood Cells): 32 µg/mL | MIC Staph. aureus (Staph. aureus; [1]): > 64 µg/mL | MIC Staph. aureus (Staph. aureus; [2]): > 64 µg/mL | MIC Strep. pneumonia (Strep. pneumoniae): > 64 µg/mL | MIC S. pneumonia (Strep. pneumoniae): > 64 µg/mL | MIC Staph. epidermidis (Staph. epidermidis; [1]): 8 µg/mL | MIC Staph. epidermidis (Staph. epidermidis; [2]): 16 µg/mL | MIC Strep. mitis (Strep. mitis): 1 µg/mL | MIC S. mitis (Strep. mitis; [2]): 1 µg/mL | MIC E.coli UB1005 (E.coli UB1005; [3]): 4 µg/mL | MIC E.coli UB1005 (E.coli UB1005; [4]): 2 µg/mL | MIC S. typhimurium (S.typhimurium; [3]): 32 µg/mL | MIC S. typhimurium (S.typhimurium; [4]): 8 µg/mL
